Source: ChEMBL document CHEMBL5143683, “Explorations of novel pyridine-pyrimidine hybrid phosphonate derivatives as aurora kinase inhibitors” (Bioorg Med Chem Lett, 2022)
Calls of active or inactive are those of the source. The calls are words filed in the database; no cut-off is given here.

What was measured:
[1] = tested on: MCF7; assay: Anticancer activity against human MCF7 cells assessed as reduction in cell viability measured after 24 hrs by MTT assay; assay type: functional, cell-based; conditions: MCF7, 24 h
[2] = tested on: HepG2; assay: Anticancer activity against human HepG2 cells assessed as reduction in cell viability measured after 24 hrs by MTT assay; assay type: functional, cell-based; conditions: HepG2, 24 h
[3] = tested on: HL-60; assay: Anticancer activity against human HL-60 cells assessed as reduction in cell viability measured after 24 hrs by MTT assay; assay type: functional, cell-based; conditions: HL-60, 24 h
[4] = tested on: HeLa; assay: Anticancer activity against human HeLa cells assessed as reduction in cell viability measured after 24 hrs by MTT assay; assay type: functional, cell-based
[5] = tested on: A549; assay: Anticancer activity against human A549 cells assessed as reduction in cell viability measured after 24 hrs by MTT assay; assay type: functional, cell-based; conditions: A549, 24 h
[6] = tested on: HeLa; assay: Induction of morphological changes in human HeLa cells assessed as […] at IC50 by inverted microscopy; assay type: functional, cell-based
[7] = tested on: HeLa; assay: Induction of morphological changes in human HeLa cells assessed as cell shrinkage at IC50 by inverted microscopy; assay type: functional, cell-based
[8] = tested on: HepG2; assay: Induction of morphological changes in human HepG2 cells assessed as cell detachment at IC50 by inverted microscopy; assay type: functional, cell-based
[9] = tested on: HepG2; assay: Induction of morphological changes in human HepG2 cells assessed as […] at IC50 by inverted microscopy; assay type: functional, cell-based
[10] = biological target: Aurora kinase B (Homo sapiens, UniProt Q96GD4); assay: Inhibition of Aurora B (unknown origin) using kemptide acetate as substrate measured after 30 mins by kinase-glo luminescence assay
Sequence of Aurora kinase B (Q96GD4 whole entry): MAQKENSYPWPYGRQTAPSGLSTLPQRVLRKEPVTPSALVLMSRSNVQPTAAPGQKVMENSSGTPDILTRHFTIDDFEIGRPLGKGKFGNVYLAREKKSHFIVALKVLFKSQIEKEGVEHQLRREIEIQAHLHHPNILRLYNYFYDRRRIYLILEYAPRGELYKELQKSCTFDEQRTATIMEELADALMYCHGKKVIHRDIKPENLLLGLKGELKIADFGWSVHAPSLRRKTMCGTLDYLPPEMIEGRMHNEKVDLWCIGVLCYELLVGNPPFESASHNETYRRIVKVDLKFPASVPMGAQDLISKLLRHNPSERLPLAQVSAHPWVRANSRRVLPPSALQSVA

[11] = tested on: HeLa; assay: Induction of morphological changes in human HeLa cells assessed as reduction in number of viable cells at IC50 by inverted microscopy; assay type: functional, cell-based
[12] = tested on: HepG2; assay: Induction of morphological changes in human HepG2 cells assessed as reduction in number of viable cells at IC50 by inverted microscopy; assay type: functional, cell-based
[13] = tested on: HepG2; assay: Induction of morphological changes in human HepG2 cells assessed as cell shrinkage at IC50 by inverted microscopy; assay type: functional, cell-based
[14] = tested on: HeLa; assay: Induction of morphological changes in human HeLa cells assessed as cell detachment at IC50 by inverted microscopy; assay type: functional, cell-based
[15] = Cytotoxicity against human L02 cells assessed as reduction in cell viability measured after 24 hrs by MTT assay; assay type: toxicity, cell-based
[16] = Selectivity index, ratio of IC50 for human L02 cells to IC50 for human Hep-G2 cells; assay type: toxicity; conditions: L02 cells and Hep-G2 cells, read-out: Ratio IC50
[17] = biological target: T1, Aurora kinase A (Homo sapiens, UniProt O14965); assay: Inhibition of Aurora A (unknown origin) using kemptide acetate as substrate measured after 30 mins by kinase-glo luminescence assay
T1 sequence (O14965 whole entry): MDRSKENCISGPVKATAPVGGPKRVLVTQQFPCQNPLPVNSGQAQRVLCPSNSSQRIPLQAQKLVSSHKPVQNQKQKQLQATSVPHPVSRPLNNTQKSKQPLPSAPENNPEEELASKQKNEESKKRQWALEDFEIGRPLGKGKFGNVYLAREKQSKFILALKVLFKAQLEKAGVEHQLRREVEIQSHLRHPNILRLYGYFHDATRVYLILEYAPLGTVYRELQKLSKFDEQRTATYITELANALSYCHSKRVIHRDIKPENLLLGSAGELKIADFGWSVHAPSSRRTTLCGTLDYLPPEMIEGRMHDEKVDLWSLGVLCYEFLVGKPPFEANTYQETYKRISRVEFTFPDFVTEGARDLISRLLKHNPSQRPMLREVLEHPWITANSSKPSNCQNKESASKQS

In the case of `CCOP(=O)(OCC)C(Nc1ccc(C)c(Nc2nccc(-c3cccnc3)n2)c1)c1ccc(N)cc1` (stereo not given), the IC50 [1] is reported as 5.32 µM, the IC50 [2] is reported as 21.5 µM and the IC50 [3] is reported as 6.39 µM. It also gave an IC50 [4] of 10.2 µM and an IC50 [5] of 21.4 µM.

Work on `CCOP(=O)(OCC)C(Nc1ccc(C)c(Nc2nccc(-c3cccnc3)n2)c1)c1ccncc1` (stereo not given) yielded an IC50 [1] of 6.38 µM, an IC50 [2] of 28.5 µM and an IC50 [3] of 7.22 µM. The IC50 [4] was 18.1 µM and the IC50 [5] was 28.1 µM.

For `CCOP(=O)(OCC)C(Nc1ccc(C)c(Nc2nccc(-c3cccnc3)n2)c1)c1ccc[nH]1` (stereo not given), the IC50 [1] was 1.59 µM, the Activity [6] was “Active” and the Activity [7] was “Active”. For the same compound, the IC50 [2] was 17.5 µM, the Activity [8] was “Active” and the Activity [9] was “Active”. The IC50 [10] was 0.022 µM, the Activity [11] was “Active” and the Activity [12] was “Active”. For the same compound, the Activity [13] was “Active”, the Activity [14] was “Active” and the IC50 [3] was 2.11 µM. The IC50 [4] was 5.81 µM, the IC50 at 24 h [15] was 95.3 µM and the IC50 [5] was 13.6 µM. It also gave a selectivity ratio [16] of 7 and an IC50 [17] of 0.042 µM.

With `CCOP(=O)(OCC)C(Nc1ccc(C)c(Nc2nccc(-c3cccnc3)n2)c1)c1ccc(OC)cc1` (stereo not given) the IC50 [1] was 6.42 µM, the IC50 [2] was 24.9 µM and the IC50 [3] was 7.87 µM. The IC50 [4] was 13 µM and the IC50 [5] was 24.3 µM.

With `CCOP(=O)(OCC)C(Nc1ccc(C)c(Nc2nccc(-c3cccnc3)n2)c1)N1CCOCC1` (stereo not given) the IC50 [1] was 6.82 µM, the IC50 [2] was 30.5 µM and the IC50 [3] was 7.65 µM. For the same compound, the IC50 [4] was 20.3 µM and the IC50 [5] was 29.2 µM.

`CCOP(=O)(OCC)C(Nc1ccc(C)c(Nc2nccc(-c3cccnc3)n2)c1)c1ccc(Cl)cc1` (stereo not given) showed an IC50 [1] of 6.09 µM, an IC50 [2] of 24.8 µM and an IC50 [3] of 7.19 µM. For the same compound, the IC50 [4] was 12 µM and the IC50 [5] was 24 µM.

`CCOP(=O)(OCC)C(Nc1ccc(C)c(Nc2nccc(-c3cccnc3)n2)c1)c1ccc(O)cc1` (stereo not given) gave an IC50 [1] of 5.67 µM, an IC50 [2] of 21.6 µM and an IC50 [3] of 5.98 µM. For the same compound, the IC50 [4] was 10.4 µM and the IC50 [5] was 21.6 µM.

With `CCOP(=O)(OCC)C(Nc1ccc(C)c(Nc2nccc(-c3cccnc3)n2)c1)c1ccc(Cl)c(Cl)c1` (stereo not given) the IC50 [1] was 7.07 µM, the IC50 [2] was 25 µM and the IC50 [3] was 8.24 µM. For the same compound, the IC50 [4] was 12.9 µM and the IC50 [5] was 25 µM.

With `CCOP(=O)(OCC)C(Nc1ccc(C)c(Nc2nccc(-c3cccnc3)n2)c1)c1ccco1` (stereo not given) the IC50 [1] was 3.36 µM, the IC50 [2] was 18.9 µM and the IC50 [3] was 3.78 µM. For the same compound, the IC50 [4] was 7.16 µM and the IC50 [5] was 15.8 µM.

With `CCOP(=O)(OCC)C(Nc1ccc(C)c(Nc2nccc(-c3cccnc3)n2)c1)c1scnc1C` (stereo not given) the IC50 [1] was 1.55 µM, the IC50 [2] was 18 µM and the IC50 [10] was 0.015 µM. The IC50 [3] was 2.32 µM, the IC50 [4] was 6.02 µM and the IC50 at 24 h [15] was 74.9 µM. For the same compound, the IC50 [5] was 13.8 µM, the selectivity ratio [16] was 5.5 and the IC50 [17] was 0.033 µM.

Compound `CCOP(=O)(OCC)C(Nc1ccc(C)c(Nc2nccc(-c3cccnc3)n2)c1)c1ccc(F)cc1` (stereo not given) has an IC50 [1] of 6.11 µM, an IC50 [2] of 24.9 µM and an IC50 [3] of 7.23 µM. For the same compound, the IC50 [4] was 12.3 µM and the IC50 [5] was 24.1 µM.

Work on `CCOP(=O)(OCC)C(Nc1ccc(C)c(Nc2nccc(-c3cccnc3)n2)c1)c1ccn[nH]1` (stereo not given) yielded an IC50 [1] of 2.36 µM, an IC50 [2] of 18.6 µM and an IC50 [10] of 0.012 µM. The IC50 [3] was 3.01 µM, the IC50 [4] was 6.88 µM and the IC50 at 24 h [15] was 83.2 µM. The IC50 [5] was 15.1 µM, the selectivity ratio [16] was 5.5 and the IC50 [17] was 0.015 µM.

`CCOP(=O)(OCC)C(Nc1ccc(C)c(Nc2nccc(-c3cccnc3)n2)c1)c1c[nH]c2ccccc12` (stereo not given) showed an IC50 [1] of 4.66 µM, an IC50 [2] of 19.9 µM and an IC50 [3] of 4.92 µM. The IC50 [4] was 8.94 µM and the IC50 [5] was 18.2 µM.

For `CCOP(=O)(OCC)C(Nc1ccc(C)c(Nc2nccc(-c3cccnc3)n2)c1)c1ccsc1` (stereo not given), the IC50 [1] was 2.46 µM, the IC50 [2] was 18.8 µM and the IC50 [3] was 2.99 µM. It also gave an IC50 [4] of 7.01 µM and an IC50 [5] of 15.7 µM.

`CCOP(=O)(OCC)C(Nc1ccc(C)c(Nc2nccc(-c3cccnc3)n2)c1)c1ccc(C)cc1` (stereo not given) gave an IC50 [1] of 5.96 µM, an IC50 [2] of 21.9 µM and an IC50 [3] of 6.75 µM. It also gave an IC50 [4] of 10.6 µM and an IC50 [5] of 22 µM.

Work on `CCOP(=O)(OCC)C(Nc1ccc(C)c(Nc2nccc(-c3cccnc3)n2)c1)c1ccccc1` (stereo not given) yielded an IC50 [1] of 8.88 µM, an IC50 [2] of 42.1 µM and an IC50 [3] of 9.02 µM. It also gave an IC50 [4] of 32.1 µM and an IC50 [5] of 40.2 µM.

With `Cc1cc(Nc2cc(N3CCN(C)CC3)nc(Sc3ccc(NC(=O)C4CC4)cc3)n2)n[nH]1` [TOZASERTIB] the IC50 [1] was 1.02 µM, the IC50 [2] was 18 µM and the IC50 [3] was 1.88 µM. The IC50 [4] was 6.24 µM and the IC50 [5] was 15.1 µM.

`CCOP(=O)(OCC)C(Nc1ccc(C)c(Nc2nccc(-c3cccnc3)n2)c1)N1CCCCC1` (stereo not given) showed an IC50 [1] of 6.86 µM, an IC50 [2] of 34 µM and an IC50 [3] of 8.18 µM. For the same compound, the IC50 [4] was 21.1 µM and the IC50 [5] was 32.6 µM.
